The values that follow come from patent publication EP0912751B1, “PROCESS FOR PREPARATION OF D-PROLINE D[…] MEANS OF MICRO-ORGANISMS” (LONZA AG, priority 1996, dated 1998).

A word on the Km: it is the substrate concentration at which the rate is half of its maximum.

This assay concerns Amidinohydrolase. The assay is described as follows: Enzyme characterisation (kinetics and inhibition) with whole cells. Type of assay: biochemical, Pseudomonas aeruginosa (DSM 10581). Here is the method:
Die Enzymcharakterisierung wurde mit ganzen Zellen von Pseudomonas aeruginosa (DSM 10581) durchgeführt. Dabei betrug die optische Dichte der Zellsuspension OD600 = 17. Der Einfluss der Temperatur wurde in 100 mM Phosphatpuffer (pH 7 - 8) bei einer Substratkonzentration von 25 mM L-α-Chlor-δ-guanidinvaleriansäure bestimmt. Dabei zeigte sich, dass bei 37 °C eine um 40% höhere Aktivität als bei 30 °C erhalten wurde. Der Einfluss des pH-Wertes wurde in gleichem Puffer, bei gleicher Substratkonzentration und bei einer Temperatur von 37 °C ermittelt. Gemessen wurde die Aktivität bei pH 7; pH 7,5; pH 8,0, pH 8,5. Dabei wurde festgestellt, dass das pH-Optimum bei pH 8,5 lag. Durch Einsatz von verschiedenen Konzentrationen an L-α-Chlor-δ-guanidinvaleriansäure wurde der KM-Wert und Vmax bei einer Temperatur von 37 °C, in 100 mM Phosphatpuffer (pH 8,5), bestimmt. Der KM-Wert betrug 85,2 mmol / l und Vmax 0,38 mmol / l / min (Fig. 3).
Durch Zugabe von verschiedenen Konzentrationen an L-α-Chlor-δ-aminovaleriansäure (hergestellt aus Ornithin analog zu Beispiel 6) konnte eine Hemmung nachgewiesen werden.

Regarding `N=C(N)NCCC[C@H](Cl)C(=O)O` [L-α-Chlor-δ-guanidinvaleriansäure], the “Hemmung der Amidinohydrolase” value (listed as a property of the enzyme, no concentration given) is “gehemmt”. Also, for the setting “substrate of the enzyme, 37 °C, 100 mM Phosphatpuffer (pH 8,5), whole cells, OD600 = 17”, the Vmax was 0,38 mmol / l / min. Further, where the note is “substrate of the enzyme, 37 °C, 100 mM Phosphatpuffer (pH 8,5), whole cells, OD600 = 17, read-out: KM-Wert”, the Km was 85.2 mM.
Consider `NCCC[C@H](Cl)C(=O)O` [L-α-Chlor-δ-aminovaleriansäure], for which, for the setting “inhibitor at a concentration of 50 mM (Fig. 4)”, the Hemmung entry is given as “vollständige Hemmung”.
